Data from US9885088B2, “Rapid phenotypic diagnosis of pathogens and drug resistance using transcriptional expression signatures” (priority 2010, dated 2018).
In brackets after ≈: the same amount, converted by molar mass. Read-outs that look alike come from different tables or passages of the source.

How the values were obtained:
[1] = system: M. tuberculosis; assay type: cell-based
[2] = system: M. tuberculosis; conditions: M. tuberculosis after drug exposure, cited from earlier work; for Magnitude of induction/repression in prior microarray-based assays, RV1570 bioD: gene RV1570 (bioD); for Magnitude of induction/repression in prior microarray-based assays, RV1570 bioD / Magnitude of induction/repression in prior microarray-based assays, RV1606 hisI / Magnitude of induction/repression in prior microarray-based assays, Rv0984 moaB2 / Magnitude of induction/repression in prior microarray-based assays, Rv2296 haloalkane / Magnitude of induction/repression in prior microarray-based assays, Rv2364c era: purpose RIF; for Magnitude of induction/repression in prior microarray-based assays, RV1606 hisI: gene RV1606 (hisI); for Magnitude of induction/repression in prior microarray-based assays, RV3675: gene RV3675 (Rv3675); for Magnitude of induction/repression in prior microarray-based assays, RV3675 / Magnitude of induction/repression in prior microarray-based assays, Rv2245 kasA / Magnitude of induction/repression in prior microarray-based assays, Rv2247 accD6 / Magnitude of induction/repression in prior microarray-based assays, Rv2846c efpA / Magnitude of induction/repression in prior microarray-based assays, Rv3801c fadD32: purpose INH; for Magnitude of induction/repression in prior microarray-based assays, Rv0055 rpsR: gene Rv0055 (rpsR); for Magnitude of induction/repression in prior microarray-based assays, Rv0055 rpsR / Magnitude of induction/repression in prior microarray-based assays, Rv1317c alkA / Magnitude of induction/repression in prior microarray-based assays, Rv2737c recA / Magnitude of induction/repression in prior microarray-based assays, Rv2790c ltp1 / Magnitude of induction/repression in prior microarray-based assays, Rv3296 lhr: purpose FQ; for Magnitude of induction/repression in prior microarray-based assays, Rv0667 rpoB: gene Rv0667 (rpoB); for Magnitude of induction/repression in prior microarray-based assays, Rv0667 rpoB / Magnitude of induction/repression in prior microarray-based assays, Rv1980c mpt64 / Magnitude of induction/repression in prior microarray-based assays, Rv2703 sigA / Magnitude of induction/repression in prior microarray-based assays, Rv3583c: purpose control; for Magnitude of induction/repression in prior microarray-based assays, Rv0813c CHP: gene Rv0813c (CHP); for Magnitude of induction/repression in prior microarray-based assays, Rv0813c CHP / Magnitude of induction/repression in prior microarray-based assays, Rv1511 gmdA / Magnitude of induction/repression in prior microarray-based assays, Rv1608c bcpB / Magnitude of induction/repression in prior microarray-based assays, Rv1832 gcvB / Magnitude of induction/repression in prior microarray-based assays, Rv3417c groEL: purpose SM; for Magnitude of induction/repression in prior microarray-based assays, Rv0984 moaB2: gene Rv0984 (moaB2); for Magnitude of induction/repression in prior microarray-based assays, Rv1317c alkA: gene Rv1317c (alkA); for Magnitude of induction/repression in prior microarray-based assays, Rv1511 gmdA: gene Rv1511 (gmdA); for Magnitude of induction/repression in prior microarray-based assays, Rv1608c bcpB: gene Rv1608c (bcpB); for Magnitude of induction/repression in prior microarray-based assays, Rv1832 gcvB: gene Rv1832 (gcvB); for Magnitude of induction/repression in prior microarray-based assays, Rv1980c mpt64: gene Rv1980c (mpt64); for Magnitude of induction/repression in prior microarray-based assays, Rv2245 kasA: gene Rv2245 (kasA); for Magnitude of induction/repression in prior microarray-based assays, Rv2247 accD6: gene Rv2247 (accD6); for Magnitude of induction/repression in prior microarray-based assays, Rv2296 haloalkane: gene Rv2296 (haloalkane); for Magnitude of induction/repression in prior microarray-based assays, Rv2364c era: gene Rv2364c (era); for Magnitude of induction/repression in prior microarray-based assays, Rv2703 sigA: gene Rv2703 (sigA); for Magnitude of induction/repression in prior microarray-based assays, Rv2737c recA: gene Rv2737c (recA); for Magnitude of induction/repression in prior microarray-based assays, Rv2790c ltp1: gene Rv2790c (ltp1); for Magnitude of induction/repression in prior microarray-based assays, Rv2846c efpA: gene Rv2846c (efpA); for Magnitude of induction/repression in prior microarray-based assays, Rv3296 lhr: gene Rv3296 (lhr); for Magnitude of induction/repression in prior microarray-based assays, Rv3417c groEL: gene Rv3417c (groEL); for Magnitude of induction/repression in prior microarray-based assays, Rv3583c: gene Rv3583c; for Magnitude of induction/repression in prior microarray-based assays, Rv3801c fadD32: gene Rv3801c (fadD32)
[3] = system: M. tuberculosis; test: microbe, parasite or virus in culture; assay type: cell-based
[4] = system: E. coli; assay type: cell-based; conditions: wild-type E. coli K-12, 10-30 minute exposure
[5] = system: E. coli; test: microbe, parasite or virus in culture; assay type: cell-based
[6] = Mycobacterium tuberculosis, H37RV
[7] = E. coli clinical isolate CIEC9955

For `[H]/N=C(/N)N[C@H]1[C@H](O)[C@@H](O)[C@H](O[C@@H]2O[C@@H](C)[C@](O)(C=O)[C@H]2O[C@@H]2O[C@@H](CO)[C@H](O)[C@@H](O)[C@@H]2NC)[C@@H](N/C(N)=N\[H])[C@@H]1O` [Streptomycin], the “genes with drug-dependent induction” value [1] is listed as “CHP, bcpB, gcvB, and groEL”, the “Magnitude of induction/repression in prior microarray-based assays, RV1570 bioD” value [2] is listed as −0.3 and the “Magnitude of induction/repression in prior microarray-based assays, RV1606 hisI” value [2] is listed as −0.4. For the same compound, the “Magnitude of induction/repression in prior microarray-based assays, RV3675” value [2] was 0.0, the “Magnitude of induction/repression in prior microarray-based assays, Rv0055 rpsR” value [2] was 1.7 and the “Magnitude of induction/repression in prior microarray-based assays, Rv0667 rpoB” value [2] was 1.4. The “Magnitude of induction/repression in prior microarray-based assays, Rv0813c CHP” value [2] was 3.8, the “Magnitude of induction/repression in prior microarray-based assays, Rv0984 moaB2” value [2] was −1.1 and the “Magnitude of induction/repression in prior microarray-based assays, Rv1317c alkA” value [2] was 0.4. The “Magnitude of induction/repression in prior microarray-based assays, Rv1511 gmdA” value [2] was 1.6, the “Magnitude of induction/repression in prior microarray-based assays, Rv1608c bcpB” value [2] was 2.2 and the “Magnitude of induction/repression in prior microarray-based assays, Rv1832 gcvB” value [2] was 1.3. For the same compound, the “Magnitude of induction/repression in prior microarray-based assays, Rv1980c mpt64” value [2] was 0.4, the “Magnitude of induction/repression in prior microarray-based assays, Rv2245 kasA” value [2] was −1.9 and the “Magnitude of induction/repression in prior microarray-based assays, Rv2247 accD6” value [2] was −0.8. For the same compound, the “Magnitude of induction/repression in prior microarray-based assays, Rv2296 haloalkane” value [2] was 0.1, the “Magnitude of induction/repression in prior microarray-based assays, Rv2364c era” value [2] was −0.6 and the “Magnitude of induction/repression in prior microarray-based assays, Rv2703 sigA” value [2] was 0.4. For the same compound, the “Magnitude of induction/repression in prior microarray-based assays, Rv2737c recA” value [2] was −0.1, the “Magnitude of induction/repression in prior microarray-based assays, Rv2790c ltp1” value [2] was −1.1 and the “Magnitude of induction/repression in prior microarray-based assays, Rv2846c efpA” value [2] was −0.7. The “Magnitude of induction/repression in prior microarray-based assays, Rv3296 lhr” value [2] was 0.1, the “Magnitude of induction/repression in prior microarray-based assays, Rv3417c groEL” value [2] was 1.6 and the “Magnitude of induction/repression in prior microarray-based assays, Rv3583c” value [2] was 1.0. For the same compound, the “Magnitude of induction/repression in prior microarray-based assays, Rv3801c fadD32” value [2] was 0.8 and the MIC [3, 6] was 1 µg/mL (≈ 1.72 µM).
With `NNC(=O)c1ccncc1` [Isoniazid] the “genes with drug-dependent induction” value [1] was “kasA, fadD32, accD6, efpA, and Rv3675.1”, the MIC ([3]; Mycobacterium tuberculosis, BAA812) was 0.4 µg/mL (≈ 2.92 µM) and the MIC [3, 6] was 0.05 µg/mL (≈ 0.365 µM).
For `O=C(O)c1cn(C2CC2)c2cc(N3CCNCC3)c(F)cc2c1=O` [Ciprofloxacin], the MIC [3] was 16 µg/mL (≈ 48.3 µM).
With `CO[C@H]1/C=C/O[C@@]2(C)Oc3c(C)c(O)c4c(O)c(c(/C=N/N5CCN(C)CC5)c(O)c4c3C2=O)NC(=O)/C(C)=C\C=C\[C@H](C)[C@H](O)[C@@H](C)[C@@H](O)[C@@H](C)[C@H](OC(C)=O)[C@@H]1C` [Rifampin] the “genes with drug-dependent induction” value [1] was “bioD, hisI, era, and Rv2296”.
For `CC1(C)S[C@@H]2[C@H](NC(=O)[C@H](N)c3ccccc3)C(=O)N2[C@H]1C(=O)O` [Ampicillin], the “changes in transcript levels (drug-susceptible expression signature)” value [4] was “expected changes in transcript levels”, the “Sensitive (S) or Resistant (R)” value [5, 7] was “R” and the “Sensitive (S) or Resistant (R)” value ([5]; E. coli strain K12) was “S”. For the same compound, the MIC ([5]; Escherichia coli, E. coli clinical isolate CIEC0838, read-out: MIC) was greater than 250 µg/mL, the MIC ([5]; Escherichia coli, E. coli clinical isolate CIEC2219, read-out: MIC) was greater than 250 µg/mL and the MIC ([5]; Escherichia coli, E. coli clinical isolate CIEC9181, read-out: MIC) was greater than 250 µg/mL. The MIC ([5]; Escherichia coli, E. coli clinical isolate CIEC9955, read-out: MIC) was greater than 250 µg/mL, the MIC ([5]; Escherichia coli, E. coli strain DH5α, read-out: MIC) was 8 µg/mL (≈ 22.9 µM) and the MIC ([5]; Escherichia coli, E. coli strain J53, read-out: MIC) was 4 µg/mL (≈ 11.4 µM). For the same compound, the MIC ([5]; Escherichia coli, E. coli strain K12, read-out: MIC) was 4 µg/mL (≈ 11.4 µM).
With Gentamicin the “changes in transcript levels (drug-susceptible expression signature)” value [4] was “expected changes in transcript levels”, the “Sensitive (S) or Resistant (R)” value [5] was “S and R” and the MIC ([5]; E. coli clinical isolate CIEC1676) was 8 µg/mL. The MIC ([5]; E. coli clinical isolate CIEC1801) was 8 µg/mL, the MIC ([5]; E. coli clinical isolate CIEC2219) was 125 µg/mL and the MIC ([5]; E. coli clinical isolate CIEC4940) was greater than 250 µg/mL. For the same compound, the MIC ([5]; E. coli clinical isolate CIEC9181) was greater than 250 µg/mL, the MIC [5, 7] was 16 µg/mL and the MIC ([5]; E. coli strain K12) was 8 µg/mL.
For `CO[C@H]1/C=C/O[C@@]2(C)Oc3c(C)c(O)c4c(O)c(c(/C=N/N5CCN(C)CC5)c(O)c4c3C2=O)NC(=O)/C(C)=C\C=C\[C@H](C)[C@H](O)[C@@H](C)[C@@H](O)[C@@H](C)[C@H](OC(C)=O)[C@@H]1C` [RIF], the “Magnitude of induction/repression in prior microarray-based assays, RV1570 bioD” value [2] is given as 1.2, the “Magnitude of induction/repression in prior microarray-based assays, RV1606 hisI” value [2] is given as 1.5 and the “Magnitude of induction/repression in prior microarray-based assays, RV3675” value [2] is given as 0.0. The “Magnitude of induction/repression in prior microarray-based assays, Rv0055 rpsR” value [2] was −0.9, the “Magnitude of induction/repression in prior microarray-based assays, Rv0667 rpoB” value [2] was 0.1 and the “Magnitude of induction/repression in prior microarray-based assays, Rv0813c CHP” value [2] was 0.3. The “Magnitude of induction/repression in prior microarray-based assays, Rv0984 moaB2” value [2] was 1.7, the “Magnitude of induction/repression in prior microarray-based assays, Rv1317c alkA” value [2] was 0.5 and the “Magnitude of induction/repression in prior microarray-based assays, Rv1511 gmdA” value [2] was −0.3. For the same compound, the “Magnitude of induction/repression in prior microarray-based assays, Rv1608c bcpB” value [2] was 0.3, the “Magnitude of induction/repression in prior microarray-based assays, Rv1832 gcvB” value [2] was −0.4 and the “Magnitude of induction/repression in prior microarray-based assays, Rv1980c mpt64” value [2] was −1.2. The “Magnitude of induction/repression in prior microarray-based assays, Rv2245 kasA” value [2] was −1.0, the “Magnitude of induction/repression in prior microarray-based assays, Rv2247 accD6” value [2] was −0.8 and the “Magnitude of induction/repression in prior microarray-based assays, Rv2296 haloalkane” value [2] was 1.2. For the same compound, the “Magnitude of induction/repression in prior microarray-based assays, Rv2364c era” value [2] was 1.4, the “Magnitude of induction/repression in prior microarray-based assays, Rv2703 sigA” value [2] was −1.4 and the “Magnitude of induction/repression in prior microarray-based assays, Rv2737c recA” value [2] was −0.6. The “Magnitude of induction/repression in prior microarray-based assays, Rv2790c ltp1” value [2] was −0.7, the “Magnitude of induction/repression in prior microarray-based assays, Rv2846c efpA” value [2] was −0.9 and the “Magnitude of induction/repression in prior microarray-based assays, Rv3296 lhr” value [2] was 0.2. For the same compound, the “Magnitude of induction/repression in prior microarray-based assays, Rv3417c groEL” value [2] was −0.9, the “Magnitude of induction/repression in prior microarray-based assays, Rv3583c” value [2] was −1.8 and the “Magnitude of induction/repression in prior microarray-based assays, Rv3801c fadD32” value [2] was −0.6.
